Assay results reported in patent US8877206B2, “Stimulation of an immune response by cationic lipids” (PDS Biotechnology Corporation, priority 2007, dated 2014).
Like-named read-outs stand apart in the source and are kept apart here.

Tests used:
DC2.4 dendritic cells = conditions: cited from earlier work; for Potency to stimulate expression of CD 80 vs lipids with longer or saturated acyl chains: ethyl phosphocholine head group lipids, FIG. 14B; for Expression of CD80/CD86: FIG. 14A, disclosed in U.S. Pat. No. 7,303,881
BMDC [1] = assay: CCL2 release from BMDC (ELISA); type: cell-based, C57BL/6 mice
BMDC [2] = assay: RT-PCR of chemokine mRNA in BMDC; type: cell-based, mouse; conditions: 50 μM liposomes for 16 h; FIG. 15B
Experimental: Total RNA was isolated from BMDC by Rneasy Mini Kit from Qiagen according to the manufacturer's instruction. Following digestion with Dnase for 30 min at 37° C., the total RNA concentration was determined by spectrophotometry. Primer pairs for mouse CCL2, CCL3, CCL4 and β-actin (forward primer 5′-[…]-3′ [SEQ. ID. NO. 3] and reverse primer 5′-[…]-3′ [SEQ. ID. NO. 4] for CCL2; forward primer 5′-[…]-3′ [SEQ. ID. NO. 5] and reverse primer 5′-[…]-3′ [SEQ. ID. NO. 6] for CCL3; forward primer 5′-[…]-3′ [SEQ. ID. NO. 7] and reverse primer 5′-[…]-3′ [SEQ. ID. NO. 8] and reverse primer 5′-[…]-3′ [SEQ. ID. NO. 9] for β-actin [Wang H., et al., Potential involvement of monocyte chemoattractant protein (MCP)-1/CCL2 in IL-4-mediated tumor immunity through inducing dendritic cell migration into the draining lymph nodes, Int Immunopharmacol 3:627-42, (2003)] were synthesized by IDT technology. RT-PCR was performed using the one-step RT-PCR kit (commercially available from Invitrogen of Carlsbad, Calif.) where reverse transcription and DNA amplification occur in the same reaction. Briefly, 1 μg of total RNA was used as a template in a reaction that included the appropriate primers in the presence of both reverse transcriptase and Taq polymerase. The mixture was incubated at 45° C. for 30 min and cycled 25 times at 94° C. for 30 s, 55° C. for 30 s, and 72° C. for 2 min. […]

[3] = test system: murine bone marrow derived dendritic cells (BMDC); conditions: Vangesseri et al 2006; cited from earlier work
[4] = test system: bone marrow derived dendritic cells (BMDC); type: cell-based, mouse
TC-1 tumor = assay: TC-1 HPV-positive tumor growth in treated mice; type: in vivo, C57BL/6 mice; conditions: 100 nmole dose, without E7 peptide
DC2.4 cells = assay: Affymetrix microarray of DC2.4 cells treated with DOTAP liposomes; type: cell-based, mouse
[5] = Western blot of ERK and p38 activation in BMDC; type: cell-based, mouse
Experimental: (§1) BMDC cell lysate was collected after different treatments and total cellular protein was resolved on polyacrylamide/SDS gels and then transferred to polyvinylidene difluoride membranes. The membranes were blocked with 5% nonfat milk in Tris-buffered saline for 1 h and then incubated from 1 h to overnight with primary antibody. After washing the membranes with Tris-buffered saline three times, the membranes were incubated horseradish peroxidase conjugated secondary antibody for 1 h. The peroxidase activity associated with the protein bands was detected by enhanced chemiluminescence using ECL plus (Amershan International) followed by autoradiography.

ERK = assay: Western blot of ERK and p38 activation in BMDC; type: cell-based, mouse; conditions: for Effect on DOTAP-induced ERK phosphorylation: FIG. 19C
Experimental: as §1

[6] = test system: draining lymph node cells; assay: Uptake of NBD-DOTAP and dendritic cell activation/migration to the draining lymph node; type: in vivo, mice
Experimental: Naïve mice (n=4-6) were injected with PBS control (FIGS. 7 A, C and E) or DOTAP/E7 containing 100 nmols total lipid with 0.5% 1-Oleoyl-2-[6-[(7-nitro-2-1,3-benzoxadiazol-4-yl)amino]hexanoyl]-3-trimethylammonium propane] (“NBD-DOTAP”) (FIGS. 7 B, D, and F). At 4 h after the injection, draining lymph node cells were prepared and stained with appropriate antibodies to surface markers. The co-expression of NBD and CD11c (FIGS. 7 A and B) or CD86 (FIGS. 7 C and D) were analyzed within total lymph node cells whereas the co-expression of NBD and CD8 (FIGS. 7 E and F) were gated and analyzed within CD3^+ population. The numbers represented the percentages of cells in the quadrants. Draining lymph node cells were harvested and analyzed by flow cytometry at different time points post injection. The numbers of CD11c^+ cells among total lymph node cells increased by more than 2.5-fold compared to untreated mice 4 h after NBD-DOTAP/E7 injection (FIGS. 7 A and B). […] NBD uptake by other cell types such as T lymphocytes was also investigated by costaining with anti-CD3, CD4 and CD8 antibodies.

[7] = BMDC stimulated 20 h at 37° C., supernatant ELISA, FIG. 1

## CCCCCCCCCCCC(=O)OC[C@H](COP(=O)(OCC)OCC[N+](C)(C)C)OC(=O)CCCCCCCCCCC (stereo partly drawn) [DLEPC, 1,2-dilauroyl-sn-glycero-3-ethylphosphocholine]
DC2.4 dendritic cells
  Potency to stimulate expression of CD 80 vs lipids with longer or saturated acyl chains: more potent

## CCCCCCCCCCCCCC(=O)OCC(COP(=O)(OCC)OCC[N+](C)(C)C)OC(=O)CCCCCCCCCCCCC (stereo not drawn) [DMEPC, 1,2-dimyristoyl-sn-glycero-3-ethylphosphocholine]
DC2.4 dendritic cells
  Potency to stimulate expression of CD 80 vs lipids with longer or saturated acyl chains: more potent

## CCCCCCCCCCCCCCOC(=O)CC[C@H](NC(=O)[C@@H](N)CCCCN)C(=O)OCCCCCCCCCCCCCC [DMKD, O,O′-dimyristyl-N-lysyl-glutamate]
DC2.4 dendritic cells
  Expression of CD80/CD86: strongly stimulated

## CCCCCCCCCCCCCCOC(=O)C[C@H](NC(=O)[C@@H](N)CCCCN)C(=O)OCCCCCCCCCCCCCC [DMKE, O,O′-dimyristyl-N-lysyl aspartate]
DC2.4 dendritic cells
  Expression of CD80/CD86: strongly stimulated

## CCCCCCCC/C=C\CCCCCCCC(=O)OCC(CN(C)C)OC(=O)CCCCCCC/C=C\CCCCCCCC (stereo not drawn) [DODAP, dioleoyl dimethylaminopropane]
BMDC [1]
  MCP-1/CCL2 release from BMDC by liposomes: did not induce the activity

## CCCCCCCC/C=C\CCCCCCCC(=O)OC[C@@H](COP(=O)(OCC)OCC[N+](C)(C)C)OC(=O)CCCCCCC/C=C\CCCCCCCC (stereo partly drawn) [DOEPC, 1,2-dioleoyl-sn-glycero-3-ethylphosphocholine]
BMDC [2]
  CCL2 and CCL4 mRNA (RT-PCR): upregulated
BMDC [1]
  MCP-1/CCL2 release from BMDC by liposomes: induced the MCP-1/CCL2 release
DC2.4 dendritic cells
  Potency to stimulate expression of CD 80 vs lipids with longer or saturated acyl chains: more potent
[3]
  Expression of co-stimulatory molecules CD80 and CD86: activated for the expression of the co-stimulatory molecules

## CCCCCCCC/C=C\CCCCCCCC(=O)OC[C@H](CO)OC(=O)CCCCCCC/C=C\CCCCCCCC [DOG]
BMDC [1]; FIG. 16
  MCP-1/CCL2 release from BMDC by liposomes: did not

## CCCCCCCC/C=C\CCCCCCCC(=O)OC[C@H](COP(=O)([O-])OCC[N+](C)(C)C)OC(=O)CCCCCCC/C=C\CCCCCCCC [DOPC, dioleoyl phosphatidylcholine]
BMDC [1]
  MCP-1/CCL2 release from BMDC by liposomes: did not

## CCCCCCCC/C=C\CCCCCCCC(=O)OC[C@H](COP(=O)(O)OCC(O)CO)OC(=O)CCCCCCC/C=C\CCCCCCCC (stereo partly drawn) [DOPG]
BMDC [1]; FIG. 16
  MCP-1/CCL2 release from BMDC by liposomes: did not

## CCCCCCCC/C=C\CCCCCCCC(=O)OC[C@H](COP(=O)(O)OC[C@H](N)C(=O)O)OC(=O)CCCCCCC/C=C\CCCCCCCC [DOPS]
BMDC [1]
  MCP-1/CCL2 release from BMDC by liposomes: did not

## CCCCCCCC/C=C\CCCCCCCC(=O)OCC(C[N+](C)(C)C)OC(=O)CCCCCCC/C=C\CCCCCCCC (stereo not drawn) [DOTAP, 1,2-dioleoyl-3-trimethylammonium propane]
[4]
  IL-10 induction: no induction of IL-10
[4]; [7]
  IL-12 production: production increased in response to DOTAP concentration
  TNF-α production: did not induce significant levels
TC-1 tumor
  TC-1 tumor growth: did not show significant inhibition of tumor growth
DC2.4 cells; 50 μM DOTAP
  CD11c mRNA: induced
DC2.4 cells; 50 μM DOTAP treatment for 16 h
  IL-1 receptor antagonist (IL1RA) mRNA: increased
  IL-1 β mRNA: decreased
DC2.4 cells; 50 μM DOTAP, FIG. 15A
  mRNA of chemokines CCL2, CCL3, CCL4: induced overexpression of several chemokines
BMDC [2]
  CCL2 and CCL4 mRNA (RT-PCR): upregulated
BMDC [1]
  CCL2 release: induced significant amounts of CCL2
  Concentration at which maximum CCL2 induction was reached: 45 to 75 µM
  MCP-1/CCL2 release from BMDC by liposomes: induced the MCP-1/CCL2 release
[5]
  Phosphorylation of IκB and subsequent degradation: no phosphorylation of IκB
  p38 activation: slightly activated
ERK
  Time phospho-ERK stayed at a high level: at least 40 min
  Time to ERK phosphorylation: ≤ 10 min
[3]
  Expression of co-stimulatory molecules CD80 and CD86: activated for the expression of the co-stimulatory molecules

## CCCCCCCC/C=C\CCCCCCCC(=O)OCC(C[N+](C)(C)C)OC(=O)CCCCCNc1ccc([N+](=O)[O-])c2nonc12 (stereo not drawn) [NBD-DOTAP]
[6]; FIG. 7E, F
  NBD uptake by CD3+ cells: no NBD uptake
[6]; soon after immunization
  Share taken up by dendritic cells: ~80%

## CC(C)(C)n1nc(-c2ccc(Cl)cc2)c2c(N)ncnc21 [PP2, reference compound]
BMDC [1]; pre-incubated 20 min, then 75 μM DOTAP 24 h, PD 20 μM, SB 10 μM, U 10 μM, PTx 200 ng/mL, PP2 10 μM, Wort 200 nM, GF 200 nM, FIG. 18
  Effect on DOTAP-induced CCL2 production: no inhibitory effect
ERK
  Effect on DOTAP-induced ERK phosphorylation: no effect

## GF109203X [reference compound]
ERK
  Effect on DOTAP-induced ERK phosphorylation: no effect

## pertussis toxin [reference compound]
ERK
  Effect on DOTAP-induced ERK phosphorylation: slight inhibitory effect
